Biological target: SWI/SNF-related matrix-associated actin-dependent regulator of chromatin subfamily A member 2 (Homo sapiens, UniProt P51531)
Assay: Inhibition of N-terminal hexa-histidine-tagged truncated human SMARCA2 (470 to 1590 residues) extracted from Sf9 insect cells using poly(dA-dT) linear dsDNA as substrate preincubated for 30 mins followed by substrate/ATP addition measured after 180 mins by ADP-Glo assay
Type: cell-free

Chain of SWI/SNF-related matrix-associated actin-dependent regulator of chromatin subfamily A member 2 (P51531 whole entry, the tested form may be a part): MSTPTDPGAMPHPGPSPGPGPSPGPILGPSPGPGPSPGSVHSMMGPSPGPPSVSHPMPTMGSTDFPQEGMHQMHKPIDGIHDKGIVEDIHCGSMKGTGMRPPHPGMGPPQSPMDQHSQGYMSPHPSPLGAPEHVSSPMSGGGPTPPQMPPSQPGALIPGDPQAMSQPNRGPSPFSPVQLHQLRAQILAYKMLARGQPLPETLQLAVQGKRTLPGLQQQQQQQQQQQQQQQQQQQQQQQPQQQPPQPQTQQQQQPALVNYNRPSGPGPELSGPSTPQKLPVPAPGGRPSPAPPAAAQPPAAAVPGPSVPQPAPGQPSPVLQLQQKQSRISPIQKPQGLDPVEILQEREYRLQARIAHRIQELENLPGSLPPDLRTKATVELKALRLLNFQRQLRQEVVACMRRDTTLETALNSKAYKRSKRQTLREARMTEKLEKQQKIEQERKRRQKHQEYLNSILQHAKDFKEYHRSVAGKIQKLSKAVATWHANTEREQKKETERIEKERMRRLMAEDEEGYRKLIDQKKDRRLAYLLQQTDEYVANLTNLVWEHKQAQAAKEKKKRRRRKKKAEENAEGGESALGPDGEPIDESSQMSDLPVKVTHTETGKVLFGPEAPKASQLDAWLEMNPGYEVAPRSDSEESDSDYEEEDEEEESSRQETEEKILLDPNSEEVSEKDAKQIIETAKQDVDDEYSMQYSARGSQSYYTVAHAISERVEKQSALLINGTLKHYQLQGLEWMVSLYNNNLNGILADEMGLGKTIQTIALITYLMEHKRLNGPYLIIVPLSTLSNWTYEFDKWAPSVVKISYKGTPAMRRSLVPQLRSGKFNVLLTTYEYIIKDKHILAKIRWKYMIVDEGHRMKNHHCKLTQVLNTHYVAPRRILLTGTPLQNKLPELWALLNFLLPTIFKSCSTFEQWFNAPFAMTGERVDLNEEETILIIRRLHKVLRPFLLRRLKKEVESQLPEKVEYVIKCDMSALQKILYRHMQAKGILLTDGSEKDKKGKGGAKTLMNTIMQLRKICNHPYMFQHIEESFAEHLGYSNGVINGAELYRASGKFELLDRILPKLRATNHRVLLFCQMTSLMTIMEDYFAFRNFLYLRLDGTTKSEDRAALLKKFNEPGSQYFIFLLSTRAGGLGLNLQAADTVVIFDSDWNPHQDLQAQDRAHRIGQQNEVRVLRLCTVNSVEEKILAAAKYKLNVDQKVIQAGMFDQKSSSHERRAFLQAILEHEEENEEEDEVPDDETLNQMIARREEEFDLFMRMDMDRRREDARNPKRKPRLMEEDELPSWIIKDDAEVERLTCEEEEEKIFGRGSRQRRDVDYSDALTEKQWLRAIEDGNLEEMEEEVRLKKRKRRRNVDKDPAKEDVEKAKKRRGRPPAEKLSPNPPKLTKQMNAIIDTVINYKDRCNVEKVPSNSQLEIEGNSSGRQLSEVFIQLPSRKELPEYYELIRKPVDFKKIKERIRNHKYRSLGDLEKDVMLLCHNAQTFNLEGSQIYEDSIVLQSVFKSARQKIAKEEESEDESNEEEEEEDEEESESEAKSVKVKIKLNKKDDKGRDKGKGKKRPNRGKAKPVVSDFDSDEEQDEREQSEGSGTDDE

IC50 [nM]	Compound
3.6	CCS(=O)(=O)N1CCc2ccc(C(=O)NCc3cc4nc(-c5cccc(N6C[C@@H](C)O[C@@H](C)C6)n5)ccc4cn3)cc21
2.27	C[C@@H]1CN(c2cccc(-c3ccc4cnc(CNC(=O)c5cc(Cl)c6c(c5)N(S(C)(=O)=O)CC6)cc4n3)n2)C[C@H](C)O1
8.14	C=CCS(=O)(=O)N1CCc2ccc(C(=O)NCc3cc4nc(-c5cccc(N6C[C@@H](C)O[C@@H](C)C6)n5)ccc4cn3)cc21

— ChEMBL document CHEMBL6109169, “1,6-Naphthridine Compounds as SMARCA2 Inhibitors for Treating Non-small Cell Lung Cancer” (ACS Med Chem Lett, 2025)
